Results from ChEMBL document CHEMBL3227989, “Coenzyme--substrate adducts as inhibitors of mouse liver 3,4-dihydroxyphenylalanine decarboxylase” (J Med Chem, 1979).

Assays:
[1] = target: T1, Aromatic-L-amino-acid decarboxylase (Mus musculus) (UniProt O88533); test: Inhibition of ICR Swiss mouse liver dopa decarboxylase at 10^-3 M after 15 mins
T1 sequence (whole entry): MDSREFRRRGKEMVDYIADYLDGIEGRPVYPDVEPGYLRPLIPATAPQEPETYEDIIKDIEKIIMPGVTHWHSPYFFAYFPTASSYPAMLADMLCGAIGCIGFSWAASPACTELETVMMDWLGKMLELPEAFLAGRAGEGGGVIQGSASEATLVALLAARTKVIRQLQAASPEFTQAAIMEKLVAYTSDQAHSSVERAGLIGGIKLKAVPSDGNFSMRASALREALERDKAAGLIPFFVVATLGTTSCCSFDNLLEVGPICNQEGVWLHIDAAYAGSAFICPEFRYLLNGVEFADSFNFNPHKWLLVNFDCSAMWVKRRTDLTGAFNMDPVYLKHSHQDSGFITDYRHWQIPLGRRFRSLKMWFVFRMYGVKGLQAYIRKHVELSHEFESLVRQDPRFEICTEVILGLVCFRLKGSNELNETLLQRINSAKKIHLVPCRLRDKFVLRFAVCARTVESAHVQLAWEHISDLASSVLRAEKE

[2] = target: T1, Aromatic-L-amino-acid decarboxylase (Mus musculus); test: Inhibition of ICR Swiss mouse liver dopa decarboxylase at 2 X 10^-3 M after 15 mins
[3] = target: T1, Aromatic-L-amino-acid decarboxylase (Mus musculus); test: Inhibition of ICR Swiss mouse liver dopa decarboxylase at 10^-5 M after 15 mins
[4] = target: T1, Aromatic-L-amino-acid decarboxylase (Mus musculus); test: Inhibition of ICR Swiss mouse liver dopa decarboxylase at 10^-4 M after 15 mins
[5] = target: T1, Aromatic-L-amino-acid decarboxylase (Mus musculus); test: Inhibition of ICR Swiss mouse liver dopa decarboxylase at 2 X 10^-4 M after 15 mins
[6] = target: T2, Aromatic-L-amino-acid decarboxylase (Mus musculus, UniProt O88533); test: Inhibition of ICR Swiss mouse liver dopa decarboxylase after 15 mins
T2 sequence (O88533 whole entry): T1 sequence (whole entry)

[7] = target: T1, Aromatic-L-amino-acid decarboxylase (Mus musculus); test: Inhibition of ICR Swiss mouse liver dopa decarboxylase at 2 X 10^-5 M after 15 mins
[8] = compound: Cc1ncc(COP(=O)(O)O)c(CN[C@@H](Cc2ccc(O)c(O)c2)C(=O)O)c1O; test: Inhibition of pig liver dopa decarboxylase; conditions: Sus scrofa

In the case of Cc1ncc(COP(=O)(O)O)c(CN[C@@H](Cc2ccccc2)C(=O)O)c1O, the inhibition [1] is reported as 83%, the inhibition [2] is reported as 85% and the inhibition [3] is reported as 17%. It also gave an inhibition [4] of 57%.

Work on Cc1cnc(C)c(O)c1CNC(Cc1ccc(O)c(O)c1)C(=O)O (racemic) yielded an inhibition [2] of 50% and an inhibition [5] of 15%.

With Cc1ncc(COP(=O)(O)O)c(CN[C@@H](Cc2ccc(O)c(O)c2)C(=O)O)c1O the IC50 [6] was 10 µM.

With Cc1ncc(COP(=O)(O)O)c(CNC(Cc2ccccc2O)C(=O)O)c1O (racemic) the inhibition [2] was 62% and the inhibition [7] was 53%.

Molecule Cc1ncc(COP(=O)(O)O)c(C2NC(C(=O)O)Cc3cc(O)c(O)cc32)c1O (racemic) has an inhibition [1] of less than 10%.

Cc1ncc(COP(=O)(O)O)c(CNC(Cc2ccc(O)c(O)c2)C(=O)O)c1O (racemic) showed an inhibition [7] of 63%.

Cc1ncc(COP(=O)(O)O)c(CN[C@@H](Cc2ccc(O)cc2)C(=O)O)c1O was tested, and the IC50 [6] was 70 µM.

B1: Aromatic-L-amino-acid decarboxylase (Sus scrofa), P80041 (protein)
chain: MNASDFRRRGKEMVDYMADYLEGIEGRQVYPDVQPGYLRPLIPATAPQEPDTFEDILQDVEKIIMPGVTHWHSPYFFAYFPTASSYPAMLADMLCGAIGCIGFSWAASPACTELETVMMDWLGKMLQLPEAFLAGEAGEGGGVIQGSASEATLVALLAARTKVVRRLQAASPGLTQGAVLEKLVAYASDQAHSSVERAGLIGGVKLKAIPSDGKFAMRASALQEALERDKAAGLIPFFVVATLGTTSCCSFDNLLEVGPICHEEDIWLHVDAAYAGSAFICPEFRHLLNGVEFADSFNFNPHKWLLVNFDCSAMWVKRRTDLTGAFKLDPVYLKHSHQGSGLITDYRHWQLPLGRRFRSLKMWFVFRMYGVKGLQAYIRKHVQLSHEFEAFVLQDPRFEVCAEVTLGLVCFRLKGSDGLNEALLERINSARKIHLVPCRLRGQFVLRFAICSRKVESGHVRLAWEHIRGLAAELLAAEEGKAEIKS
For B1, the Km [8] was 190 µM.
